Data taken from publication PMC5769417, “Single- and Multiple-Dose Trials to Determine the Pharmacokinetics, Safety, Tolerability, and Sex Effect of Oral Ginsenoside Compound K in Healthy Chinese Volunteers” (Frontiers in Pharmacology, 2018).

Tested on: healthy Chinese volunteers
Test: Multiple-dose trial, safety and tolerability (adverse events)
Assay type: in vivo, human
Description: Multiple-dose pharmacokinetics: The multiple-dose trial could be carried out on the condition that a single-dose of CK (25–800 mg) was safe and well tolerated in healthy Chinese volunteers. After breakfast, one of three doses (100, 200, or 400 mg) of CK or placebo were given to 36 eligible subjects randomized to each dose (male:female = 1:1), in which 10 were on active treatment and 2 were on matching placebo. CK were administered as a single dose on day 1 and then as repeated doses for 9 consecutive days (days 7–15 of the trial), and the drug was administered once-daily in the morning after meals.
Safety was evaluated by continuous observation of adverse events (AEs), monitoring of vital signs, ECG, hematology, biochemistry, and urinalysis at baseline, during the trials at the set time points following drug administration, and at follow-up visits after study completion. AEs were classified by their intensity into mild, moderate and severe. Additionally, the AEs were also classified according their relationship to the test drug as positive, probable, possible, remote, or unrelated. The severity of the AEs, as well as their relationship to test drug, was assessed by a qualified physician in the unit. Clinically relevant changes in vital signs, ECG and laboratory parameters were defined as marked abnormalities. ECG were recorded in the semisupine position after a rest of at least 5 min. It is worth noting that all the information, including symptoms and signs after dosing or the medications that the subjects were concomitantly taking must be recorded on the case-report form by investigators. All available data from subjects who received the test drug and placebo were included in the summaries of the safety data and were descriptively analyzed. In addition, the differences between laboratory parameters at baseline and after drug treatment were analyzed to determine whether there were clinical significances.
All the safety data, including vital signs, laboratory indexes and ECG, were descriptively analyzed, and the statistical analyses were conducted to evaluate the effects of the test drug by comparing the differences between before and after drug treatment, between the test drug group and the placebo group and among the different dose groups.

CC(C)=CCC[C@](C)(OC1O[C@H](CO)[C@@H](O)[C@H](O)[C@H]1O)[C@H]1CC[C@]2(C)[C@@H]1[C@H](O)C[C@@H]1[C@@]3(C)CC[C@H](O)C(C)(C)[C@@H]3CC[C@]12C (stereo partly drawn) [CK, 20-O-beta-D-glucopyranosyl-20(S)-protopanaxadiol]
AEs positively relevant to CK: 20 cases
AEs possibly related to CK: 14 cases
AEs probably related to CK: 23 cases
Alkaline phosphatase increased (study drug-related AE) (100 mg (n = 10)): 0 number of subjects (%)
Any AEs (study drug-related) (100 mg (n = 10)): 7 (19.4) number of subjects (%)
Bellyache (study drug-related AE) (100 mg (n = 10)): 0 number of subjects (%)
Blood white cells increased (study drug-related AE) (100 mg (n = 10)): 0 number of subjects (%)
Diarrhea (study drug-related AE) (100 mg (n = 10)): 3 (8.3) number of subjects (%)
Direct bilirubin increased (study drug-related AE) (100 mg (n = 10)): 2 (5.6) number of subjects (%)
Dizziness (study drug-related AE) (100 mg (n = 10)): 4 (11.1) number of subjects (%)
Headache (study drug-related AE) (100 mg (n = 10)): 0 number of subjects (%)
Loss of appetite (study drug-related AE) (100 mg (n = 10)): 2 (5.6) number of subjects (%)
Nausea (study drug-related AE) (100 mg (n = 10)): 1 (2.8) number of subjects (%)
Rash (study drug-related AE) (100 mg (n = 10)): 0 number of subjects (%)
Subcutaneous bleeding (double forearm) (study drug-related AE) (100 mg (n = 10)): 0 number of subjects (%)
Total bilirubin increased (study drug-related AE) (100 mg (n = 10)): 0 number of subjects (%)
Alkaline phosphatase increased (study drug-related AE) (200 mg (n = 10)): 1 (2.8) number of subjects (%)
Any AEs (study drug-related) (200 mg (n = 10)): 10 (27.8) number of subjects (%)
Bellyache (study drug-related AE) (200 mg (n = 10)): 4 (11.1) number of subjects (%)
Blood white cells increased (study drug-related AE) (200 mg (n = 10)): 0 number of subjects (%)
Diarrhea (study drug-related AE) (200 mg (n = 10)): 9 (25) number of subjects (%)
Direct bilirubin increased (study drug-related AE) (200 mg (n = 10)): 1 (2.8) number of subjects (%)
Dizziness (study drug-related AE) (200 mg (n = 10)): 1 (2.8) number of subjects (%)
Headache (study drug-related AE) (200 mg (n = 10)): 0 number of subjects (%)
Loss of appetite (study drug-related AE) (200 mg (n = 10)): 0 number of subjects (%)
Nausea (study drug-related AE) (200 mg (n = 10)): 0 number of subjects (%)
Rash (study drug-related AE) (200 mg (n = 10)): 0 number of subjects (%)
Subcutaneous bleeding (double forearm) (study drug-related AE) (200 mg (n = 10)): 0 number of subjects (%)
Total bilirubin increased (study drug-related AE) (200 mg (n = 10)): 1 (2.8) number of subjects (%)
Alkaline phosphatase increased (study drug-related AE) (400 mg (n = 10)): 0 number of subjects (%)
Any AEs (study drug-related) (400 mg (n = 10)): 9 (25) number of subjects (%)
Bellyache (study drug-related AE) (400 mg (n = 10)): 1 (2.8) number of subjects (%)
Blood white cells increased (study drug-related AE) (400 mg (n = 10)): 0 number of subjects (%)
Diarrhea (study drug-related AE) (400 mg (n = 10)): 9 (25) number of subjects (%)
Direct bilirubin increased (study drug-related AE) (400 mg (n = 10)): 5 (13.9) number of subjects (%)
Dizziness (study drug-related AE) (400 mg (n = 10)): 0 number of subjects (%)
Headache (study drug-related AE) (400 mg (n = 10)): 0 number of subjects (%)
Loss of appetite (study drug-related AE) (400 mg (n = 10)): 0 number of subjects (%)
Nausea (study drug-related AE) (400 mg (n = 10)): 0 number of subjects (%)
Rash (study drug-related AE) (400 mg (n = 10)): 0 number of subjects (%)
Subcutaneous bleeding (double forearm) (study drug-related AE) (400 mg (n = 10)): 1 (2.8) number of subjects (%)
Total bilirubin increased (study drug-related AE) (400 mg (n = 10)): 3 (8.3) number of subjects (%)
